{
  "source": "patent US12558354B2",
  "about": "“Tumor necrosis factor alpha (TNF-alpha) small molecule inhibitor” (AJOU UNIVERSITY INDUSTRY-ACADEMIC COOPERATION FOUNDATION, priority 2019, dated 2026)",
  "key": {"[1]": {"test_system": "human dermal fibroblasts (HDFs)", "assay": "Cell viability (MTT) assay in human dermal fibroblasts", "type": "cell-based", "conditions": "HDFs, 24 hours", "method": "FIG. 8A is a graph showing the effects of TIM1 and a solvent thereof, DMSO, on the viability of human dermal fibroblasts, in which cells (10^4/well) were treated with DMSO at 3 different concentrations (0.5, 1, and 2%) and TIM1 at 8 different concentrations (1, 3.125, 6.25, 12.5, 25, 50, 100, and 200 μM) for 24 hours, and the cell viability was monitored by an MTT assay. FIG. 8B is a graph showing the effect of TIM1 on the viability of a mouse fibrosarcoma cell line [L929 (1.5×10^4/well)] under the same conditions as in FIG. 8A. All experiments were independently performed 4 times, and mean±SEM of the independent experiments was calculated using a two-tailed paired Student's t-test (*P<0.05).\nIn order to measure cell viability, a colorimetric […] (MTT) assay (Sigma-Aldrich Co.) was performed. HDFs were seeded at a density of 10^4/well in 96-well plates (BD Biosciences, San Jose, CA, USA), grown overnight, and then treated with a test compound at various concentrations for 24 hours. The next day, the medium was replaced with a medium (100 μl/well) containing a 10% MTT solution, followed by incubated at 37° C. for 3 hours. This solution was replaced with DMSO (100 μl/well), and the plates were incubated at room temperature for 30 minutes. Thereafter, the plates were read at a wavelength of 540 nm using a microplate spectrophotometer system (Molecular Devices, Silicon Valley, California)."}, "[2]": {"target": "T1, recombinant human TNF-α (rhTNF-α) (Homo sapiens, UniProt P01375)", "T1 construct": "purchased Miltenyi Biotec", "T1 sequence (P01375 77-233 limits assumed)": "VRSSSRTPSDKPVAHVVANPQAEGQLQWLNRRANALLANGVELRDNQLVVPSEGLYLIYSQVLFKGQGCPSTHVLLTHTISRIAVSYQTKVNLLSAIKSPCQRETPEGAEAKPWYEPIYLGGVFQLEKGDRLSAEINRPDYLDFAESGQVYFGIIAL", "assay": "TNF-α-mediated hIL-8 secretion in HDFs (ELISA)", "type": "cell-based", "method": "(§1) HDFs were seeded at a density of 10^4/well in a 96-well plate (BD Biosciences) and grown overnight. The cells were treated for 24 hours with a 1-hour-pre-incubated mixture of rhTNF-α and test compounds. IL-8 secretion was assessed by a human IL-8 uncoated ELISA kit (eBioscience, Inc., San Diego, CA, USA), and IL-6 secretion level was assessed by a human IL-6 ELISA MAX™ Deluxe kit (BioLegend, San Diego, CA, USA). The microtiter plates were then analyzed at an appropriate wavelength using a microplate spectrophotometer system (Molecular Devices, Silicon Valley, California)."}, "[3]": {"target": "T1, recombinant human TNF-α (rhTNF-α)", "assay": "TNF-α-mediated hIL-6 secretion in HDFs (ELISA)", "type": "cell-based", "method": "as §1"}, "[4]": {"target": "T2, recombinant mouse TNF-α (rmTNF-α) (Mus musculus, UniProt P06804)", "T2 construct": "purchased Miltenyi Biotec", "T2 sequence (P06804 80-235 limits assumed)": "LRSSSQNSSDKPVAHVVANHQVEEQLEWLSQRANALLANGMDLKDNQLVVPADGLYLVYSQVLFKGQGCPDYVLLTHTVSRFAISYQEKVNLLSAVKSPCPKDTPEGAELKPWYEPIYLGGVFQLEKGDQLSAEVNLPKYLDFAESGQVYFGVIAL", "assay": "Cell death attenuation assay, act-D-sensitized L929 cells with rmTNF-α", "type": "cell-based", "conditions": "act-D-sensitized L929, rmTNF-α 1 ng/ml, 1-100 μM", "method": "HDFs (10^4/well) and L929 cell lines (1.5×10^4/well) were seeded in 96-well plates and grown overnight under appropriate conditions. The next day, HDFs and L929 cells were pretreated with 1 μg/ml act-D and 0.1 μg/ml act-D, respectively, followed by incubated for 30 minutes. Thereafter, a 1-hour-preincubated mixture of 10 ng/ml rhTNFα with test compounds or 1 ng/ml rmTNFα with test compounds, was applied to HDFs and L929 cells, respectively. The cells were incubated for 24 hours post-treatment, and survival was measured by the MTT assay. Cell viability was calculated with reference to the no-treatment control group. The obtained values were normalized with respect to the act-D treatment group and then used to calculate death attenuation (%) rate using the following equation: […]"}, "TNF-α/TNFR1 interface": {"target": "TNF-α/TNFR1 interface (Homo sapiens, UniProt P01375)", "sequence (P01375 77-233 limits assumed, species assumed)": "as the sequence (P01375 77-233 limits assumed) above", "conditions": "target TNF-α/TNFR1 interface, literature; cited from earlier work"}, "[5]": {"test_system": "collagen-induced polyarthritis (CIA)", "assay": "Mouse model of collagen-induced polyarthritis (CIA), oral TIM1c", "type": "in vivo", "excerpt": "FIG. 6B is a graph showing body weight, FIG. 6C is a graph showing a squeaking number (the value 0 indicating no sign of pain), FIG. 6D is a graph showing an increase in paw volume, FIG. 6E is a graph showing an arthritis index, that is, the severity of mouse limb arthritis. The number of arthritic limbs was quantified, and each limb was assigned a severity score of 0-4, the data representing the number of arthritic limbs per arthritic mouse and the mean severity score of arthritis in each limb, black arrows representing the start date of drug administration, NOR, n=4; CIA, n=4; TIM1c_2 mg/ml, n=4; TIM1c_20 mg/ml, n=5, values being represented as means±SEM. #p<0.05, ##p<0.01, ###p<0.001 vs. NOR group and p<0.05, **p<0.01, ***p<0.001 vs. CIA group (two-way ANOVA followed by Bonferroni correction).\nMale DBA/1J mice (20-23 g) were purchased from Central Lab. Animal Inc. (Seoul, Korea). Animals were housed in a limited-access rodent facility with a maximum of 4 animals per polycarbonate cage, with free access to pelleted food and water. The temperature was maintained at 22-24° C. with a 12/12-hour light/dark cycle. Animals were acclimatized for at least 1 week prior to starting the experiment. The number of animals used per experiment or test and the potential suffering were minimized. All methods were approved by the Animal Care and Use Committee of Kyung-Hee University, Korea. All procedures were executed in accordance to the Guide for the Care and Use of Laboratory Animals by the Korea National Institute of Health.\nMale DBA/1J mice (6-week-old) were subcutaneously injected with 50 μl of an emulsion containing 100 μg of chicken collagen type II (Sigma-Aldrich Co., St. Louis, MO, USA) dissolved in 25 μl of acetic acid and 25 μl of a complete Freund's adjuvant (Sigma-Aldrich Co.) at the base of the tail thereof, and the day of the first immunization was defined as day 0. On Day 14, the mice were injected with a booster of 50 μl of the emulsion having the same composition as the first immunization, except that an incomplete Freund's adjuvant was used. All mice were randomly divided into 4 experimental groups: non-treated normal group (NOR, n=4), collagen-injected and vehicle-treated arthritis control group (CIA, n=4), 2 mg/kg TIM1c-treated arthritis group (TIM1c 2 mg/ml, n=4), and 20 mg/kg TIM1c-treated arthritis group (TIM1c 20 mg/ml, n=5). The treatment groups were orally fed 2 or 20 mg/kg of TIM1c every 2 days from day 15 to day 60 after the first immunization.\nIn order to evaluate the progression of arthritis in CIA mice, four parameters (body weight, paw volume increase, squeaking score, and arthritis score) were measured after the first immunization with collagen and complete Freund's adjuvant. The body weights of the mice were measured using a digital balance (Mettler-Toledo Inc., Columbus, OH, USA). In order to assess nociception and hyperalgesia, ankle pain was evaluated on a scale measuring squeaking. Squeaking included any vocalization evoked by ankle flexion and extension. The flexion and extension procedures were repeated 10 times every 5 seconds, and the mouse was rated 0 (no vocalization) or 1 (vocalization) for each hindlimb thereof. The total number of vocalizations detected by the observer was counted as the number of squeaks. Paw swelling was measured by volume displacement of an electrolyte solution using a water-displacement plethysmometer (Ugo-Basil Biological Research Apparatus Co., Comerio-Varese, Italy), as previously described (Bang J. S. et al. (2009) Arthritis Res. Ther. 11(2):R49). The hindlimbs were immersed to the line of the hairy skin, and the volumes thereof were read on a digital display. The increase in paw volume was represented compared to day 0, which was defined as zero. […]"}, "[6]": {"conditions": "HDFs, 1, 10, 50 and 100 μM, 24 hours"}},
  "note": "“Also recorded” adds a separate entry of the source.",
  "data": [
    {"molecule": "Cc1cc2occ(CN(C)CCN(C)Cc3cn(-c4cccc(C(F)(F)F)c4)c4ccccc34)c(=O)c2cc1C", "note": "[SPD304, reference compound]", "values": [
      {"measurement": "cytotoxicity (cell viability, MTT assay)", "setting": "[1]", "value": "showed cytotoxicity; also recorded: severe cytotoxicity at high concentrations; also recorded: strong cytotoxicity at concentrations exceeding 1 μM; also recorded: significant cytotoxic effects were exhibited at concentrations of 10, 50 or 100 μM"},
      {"measurement": "secretion of hIL-8 at 10 μM", "setting": "[2]; HDFs, 10 μM", "value": "increase the secretion of cytokines"},
      {"measurement": "secretion of hIL-8 at 50 μM", "setting": "[2]; HDFs, 50 μM", "value": "completely inhibits"},
      {"measurement": "inhibition of TNF-α-mediated hIL-8 secretion", "setting": "[2]; [6]", "value": "weak at 10 μM but stronger at 1 μM"},
      {"measurement": "secretion of hIL-6 at 10 μM", "setting": "[3]; HDFs, 10 μM", "value": "increase the secretion of cytokines"},
      {"measurement": "secretion of hIL-6 at 50 μM", "setting": "[3]; HDFs, 50 μM", "value": "completely inhibited"},
      {"measurement": "inhibition of TNF-α-mediated hIL-6 secretion", "setting": "[3]; [6]", "value": "weak at 10 μM but stronger at 1 μM"},
      {"measurement": "inhibition of rmTNF-α-mediated proapoptotic pathway / cell death", "setting": "[4]", "value": "did not reduce the death of these cells at concentrations other than 1 μM"}
    ]},
    {"molecule": "Erythrosine B", "values": [
      {"measurement": "IC50", "setting": "TNF-α/TNFR1 interface", "value": 5, "unit": "µM"}
    ]},
    {"molecule": "CCCNc1nc(-c2cc(C)n(NC(=O)c3nn(C)c(=O)c4ccccc34)c2C)cs1.Cl", "note": "[TIM1c, N-{2,5-dimethyl-3-[2-(propylamino)-1,3-thiazol-4-yl]pyrrol-l-yl}-3-methyl-4-oxophthalazine-1-carboxamide hydrochloride]", "values": [
      {"measurement": "cytotoxicity (cell viability, MTT assay)", "setting": "[1]", "value": "negligible cytotoxicity"},
      {"measurement": "inhibition of TNF-induced hIL-8, TIM1 derivatives compared with TIM1", "setting": "[2]; HDFs, 1, 10 and 50 μM, rhTNF-α 1 ng/ml, 24 hours, hydrochloride", "value": "concentration-dependent inhibition of TNF-induced hIL-8 greater than that of TIM1; also recorded: maximally inhibited"},
      {"measurement": "disease severity at low dose", "setting": "[5]; 2 mg/kg/2 days", "value": "slightly ameliorate disease severity"},
      {"measurement": "induction of RA at high dose", "setting": "[5]; 20 mg/kg/2 days", "value": "significantly decreased to such an extent that the limbs of the animals were almost identical to those of the normal group"},
      {"measurement": "body weight", "setting": "[5]; 2 or 20 mg/kg every 2 days", "value": "weight gain"},
      {"measurement": "paw volume", "setting": "[5]; 2 or 20 mg/kg every 2 days", "value": "paw volume decrease"},
      {"measurement": "RA symptoms versus CIA mice", "setting": "[5]; 2 or 20 mg/kg every 2 days, day 15 to day 60", "value": "Dose-dependent amelioration"},
      {"measurement": "number of squeaks", "setting": "[5]; CIA mice", "value": "inhibited"},
      {"measurement": "arthritis index (clinical score)", "setting": "[5]; treatment group versus CIA", "value": "significantly decreased"}
    ]},
    {"molecule": "C=C1C(=O)O[C@@H]2C[C@@H](C)[C@]34C[C@]5(C(=O)O[C@H]6C[C@@]7(C)C(=C[C@H]65)[C@H](C)CC[C@@H]7O)[C@H](C(C)=C3C[C@@H]12)[C@@H]4OC(C)=O", "note": "[Japonicone A]", "values": [
      {"measurement": "IC50", "setting": "TNF-α/TNFR1 interface", "value": "~10", "unit": "µM"}
    ]}
  ]
}
